Source: patent US7932271B2, “Heterocyclic methyl sulfone derivative” (Daiichi Pharmaceutical Co., Ltd., priority 2003, dated 2011)
Counter-ions that a name gives are not always drawn.

melting point	Structure (SMILES)
217 to 219 °C	CS(=O)(=O)Nc1cc(C(c2cc(F)ccc2F)S(=O)(=O)c2ccc(Cl)cc2)c(F)cn1 (centres unmarked) [Example 204, N-[4-[(4-Chlorophenylsulfonyl)(2,5-difluorophenyl)methyl]-5-fluoropyridin-2-yl]methanesulfonamide]
142 to 143 °C	Cc1cccnc1C(c1cc(F)ccc1F)S(=O)(=O)c1ccc(Cl)cc1 (centres unmarked) [Example 14, 2-[[(4-Chlorophenyl)sulfonyl]-(2,5-difluorophenyl)methyl]-3-methylpyridine]
150 to 152 °C	O=S(=O)(c1ccc(Cl)cc1)C(c1cc(F)ccc1F)C1CCSCC1 (centres unmarked) [Example 35, 4-[[(4-Chlorophenyl)sulfonyl](2,5-difluorophenyl)methyl]tetrahydrothiopyrane]
184 to 190 °C	Cl.O=S(=O)(c1ccc(Cl)cc1)C(c1cc(F)ccc1F)C1CCNCC1 (centres unmarked)
113 to 114 °C	O=S(=O)(c1ccc(Cl)cc1)C(c1ccc(CN2CCCCC2)cn1)c1cc(F)ccc1F (centres unmarked) [Example 48, 2-[(4-Chlorophenylsulfonyl)-(2,5-difluorophenyl)methyl]-5-(piperidin-1-ylmethyl)pyridine]
196 to 198 °C	Cc1cnc(CO)cc1C(c1cc(F)ccc1F)S(=O)(=O)c1ccc(Cl)cc1 (centres unmarked) [Example 207, [4-[(4-Chlorophenylsulfonyl)(2,5-difluorophenyl)methyl]-5-methylpyridin-2-yl]methanol]
116 to 117 °C	Cc1ccnc(C(c2cc(F)ccc2F)S(=O)(=O)c2ccc(Cl)cc2)c1 (centres unmarked) [Example 16, 2-[[(4-Chlorophenyl)sulfonyl]-(2,5-difluorophenyl)methyl]-4-methylpyridine]
145 to 146 °C	COC(=O)/C=C/c1ccc(C(c2cc(F)ccc2F)S(=O)(=O)c2ccc(Cl)cc2)nc1 (centres unmarked) [Example 44, Methyl 3-[6-[(4-chlorophenylsulfonyl)-(2,5-difluorophenyl)methyl]pyridin-3-yl]acrylate]
155 to 158 °C	O=S(=O)(CCO)Nc1cc(C(c2cc(F)ccc2F)S(=O)(=O)c2ccc(Cl)cc2)c(Cl)cn1 (centres unmarked) [Example 284, N-[5-Chloro-4-[(4-chlorophenylsulfonyl)(2,5-difluorophenyl)methyl]pyridin-2-yl]-2-hydroxyethanesulfonamide]
204 to 206 °C	COc1ccc(CNc2cc(C(c3cc(F)ccc3F)S(=O)(=O)c3ccc(Cl)cc3)c(Cl)cn2)cc1OC (centres unmarked) [Example 186, 5-Chloro-4-[(4-chlorophenylsulfonyl)(2,5-difluorophenyl)methyl]-2-(3,4-dimethoxybenzylamino)pyridine]
176 to 178 °C	O=S(=O)(c1ccc(Cl)cc1)C(c1cc(F)ccc1F)c1cc(NCCCNc2ncccn2)ncc1Cl (centres unmarked) [Example 175, N-[5-Chloro-4-[(4-chlorophenylsulfonyl)-(2,5-difluorophenyl)methyl]pyridin-2-yl]-N′-(pyrimidin-2-yl)propane-1,3-diamine]
177 to 179 °C	CN(C)CC(=O)NCc1ccc(C(c2cc(F)ccc2F)S(=O)(=O)c2ccc(Cl)cc2)nc1 (centres unmarked) [Example 71, N-[[6-[(4-Chlorophenylsulfonyl)(2,5-difluorophenyl)methyl]pyridin-3-yl]methyl]-2-dimethylaminoacetamide]
159 to 160 °C	Cc1ccc(C(c2cc(F)ccc2F)S(=O)(=O)c2ccc(Cl)cc2)nc1 (centres unmarked) [Example 15, 2-[[(4-Chlorophenyl)sulfonyl]-(2,5-difluorophenyl)methyl]-5-methylpyridine]
150 to 152 °C	O=S(=O)(c1ccc(Cl)cc1)C(c1cc(F)ccc1F)C1CCOCC1 (centres unmarked) [Example 34, 4-[[(4-Chlorophenyl)sulfonyl](2,5-difluorophenyl)methyl]tetrahydropyrane]
163 to 164 °C	O=S(=O)(c1ccc(Cl)cc1)C(c1nccs1)c1cc(F)ccc1F (centres unmarked) [Example 30, 2-[[(4-Chlorophenyl)sulfonyl]-(2,5-difluorophenyl)methyl]thiazole]
141 to 142 °C	O=S(=O)(c1ccc(Cl)cc1)C(c1cc(F)ccc1F)c1cc(NCc2ccncc2)ncc1Cl (centres unmarked) [Example 188, 5-Chloro-4-[(4-chlorophenylsulfonyl)(2,5-difluorophenyl)methyl]-2-[(pyridin-4-ylmethyl)amino]pyridine]
164 to 166 °C	NCCNC(=S)c1ccc(C(c2cc(F)ccc2F)S(=O)(=O)c2ccc(Cl)cc2)nc1 (centres unmarked) (as salt: hydrochloride) [Example 142, N-(2-Aminoethyl)-6-[(4-chlorophenylsulfonyl)(2,5-difluorophenyl)methyl]thionicotinamide]
138 to 139 °C	CS(=O)(=O)NCCCNc1cc(C(c2cc(F)ccc2F)S(=O)(=O)c2ccc(Cl)cc2)c(Cl)cn1 (centres unmarked) [Example 189, N-[3-[[5-Chloro-4-[(4-chlorophenylsulfonyl)-(2,5-difluorophenyl)methyl]pyridin-2-yl]amino]propyl]methanesulfonamide]
> 230 °C	O=C(O)c1ccc(C(c2cc(F)ccc2F)S(=O)(=O)c2ccc(Cl)cc2)nc1 (centres unmarked) [Example 50, [6-[(4-Chlorophenylsulfonyl)-(2,5-difluorophenyl)methyl]pyridin-3-yl]carboxylic acid]

melting point	Structure (SMILES)
183 to 184 °C	Nc1cccc(C(c2cc(F)ccc2F)S(=O)(=O)c2ccc(Cl)cc2)n1 (centres unmarked) [Example 149, 6-[(4-Chlorophenylsulfonyl)(2,5-difluorophenyl)methyl]pyridin-2-ylamine]
236 to 238 °C	O=C(O)/C=C/c1ccc(C(c2cc(F)ccc2F)S(=O)(=O)c2ccc(Cl)cc2)nc1 (centres unmarked) [Example 135, (E)-3-[6-[(4-Chlorophenylsulfonyl)(2,5-difluorophenyl)methyl]pyridin-3-yl]acrylic acid]
200 to 205 °C	O=C(O)CCNc1cc(C(c2cc(F)ccc2F)S(=O)(=O)c2ccc(Cl)cc2)c(Cl)cn1 (centres unmarked) (hydrate or solvate) [Example 155, 3-[[5-Chloro-4-[(4-chlorophenylsulfonyl)-(2,5-difluorophenyl)methyl]pyridin-2-yl]amino]propionic acid]
> 250 °C (dec.)	NCCNC(=O)c1ccc(C(c2cc(F)ccc2F)S(=O)(=O)c2ccc(Cl)cc2)nc1 (centres unmarked) (as salt: hydrochloride) [Example 139, N-(2-Aminoethyl)-6-[(4-chlorophenylsulfonyl)(2,5-difluorophenyl)methyl]nicotinamide]
88 to 89 °C	O=S(=O)(c1ccc(Cl)cc1)C(c1cccc(CCc2ccccn2)n1)c1cc(F)ccc1F (centres unmarked) [Example 152, 2-[(4-Chlorophenylsulfonyl)(2,5-difluorophenyl)methyl]-6-(2-pyridin-2-ylethyl)pyridine]
70 to 72 °C	Fc1ccc(F)c(C(Sc2ccc(Cl)cc2)c2ccncc2Cl)c1 (centres unmarked) [Example 53, 3-Chloro-4-[(4-chlorophenylthio)-(2,5-difluorophenyl)methyl]pyridine]
184 to 185 °C	COc1cccnc1C(c1cc(F)ccc1F)S(=O)(=O)c1ccc(Cl)cc1 (centres unmarked) [Example 17, 2-[[(4-Chlorophenyl)sulfonyl]-(2,5-difluorophenyl)methyl]-3-methoxypyridine]
70 to 73 °C	Fc1ccc(F)c(C(Sc2ccc(Cl)cc2)c2ccc(C3OCCO3)cn2)c1 (centres unmarked) [Example 41, 2-[(4-Chlorophenylthio)-(2,5-difluorophenyl)methyl]-5-(1,3-dioxolan-2-yl)pyridine]
249 to 251 °C	O=C(O)c1cnc(C(c2cc(F)ccc2F)S(=O)(=O)c2ccc(Cl)cc2)c(F)c1 (centres unmarked) [Example 127, 6-(4-Chlorophenylsulfonyl)(2,5-difluorophenyl)methyl-5-fluoronicotinic acid]
94 to 96 °C	O=C(O)c1cc(C(c2cc(F)ccc2F)S(=O)(=O)c2ccc(Cl)cc2)c(Cl)cn1 (centres unmarked) [Example 262, 5-Chloro-4-[(4-chlorophenylsulfonyl)(2,5-difluorophenyl)methyl]picolinic acid]
177 to 178 °C	CN(C)S(=O)(=O)NCc1ccc(C(c2cc(F)ccc2F)S(=O)(=O)c2ccc(Cl)cc2)nc1 (centres unmarked) [Example 68, N-[[6-[(4-Chlorophenylsulfonyl)(2,5-difluorophenyl)methyl]pyridin-3-yl]methyl]-N′,N′-dimethylsulfamide]
120 to 121 °C	O=C1C(C(c2cc(F)ccc2F)S(=O)(=O)c2ccc(Cl)cc2)CCCN1CCCO (centres unmarked) [Example 153, 3-[(4-Chlorophenylsulfonyl)(2,5-difluorophenyl)methyl]-1-(3-hydroxypropyl)piperidin-2-one]
150 to 151 °C	COc1ccc(-n2ccnc2C(c2cc(F)ccc2F)S(=O)(=O)c2ccc(Cl)cc2)cc1 (centres unmarked) [Example 31, 2-[[(4-Chlorophenyl)sulfonyl]-(2,5-difluorophenyl)methyl]-1-(4-methoxyphenyl)-1H-imidazole]
193 to 195 °C	NCCCNc1cc(C(c2cc(F)ccc2F)S(=O)(=O)c2ccc(Cl)cc2)c(Cl)cn1 (centres unmarked) (as salt: hydrochloride) [Example 173, N-[5-Chloro-4-[(4-chlorophenylsulfonyl)-(2,5-difluorophenyl)methyl]pyridin-2-yl]propane-1,3-diamine dihydrochloride]
120 to 121 °C	O=S(=O)(c1ccc(Cl)cc1)C(c1ccc(CN2CCOCC2)cn1)c1cc(F)ccc1F (centres unmarked) [Example 49, 4-[[6-[(4-Chlorophenylsulfonyl)-(2,5-difluorophenyl)methyl]pyridin-3-yl]methyl]morpholine]
179 to 181 °C	Nc1cc(C(c2c(F)cccc2F)S(=O)(=O)c2ccc(Cl)cc2)c(Cl)cn1 (centres unmarked) [Example 296, 5-Chloro-4-[(4-chlorophenylsulfonyl)(2,6-difluorophenyl)methyl]pyridin-2-ylamine]
208 to 209 °C	O=S(=O)(c1ccc(Cl)cc1)C(c1ccncc1)C1CCOCC1 (centres unmarked) [Example 3, 4-[(4-Chlorophenylsulfonyl)(tetrahydropyran-4-yl)methyl]pyridine]
172 to 173 °C	O=S(=O)(c1ccc(Cl)cc1)C(c1cc(F)ccc1F)c1cc(CO)ncc1Br (centres unmarked) [Example 228, [5-Bromo-4-[(4-chlorophenylsulfonyl)(2,5-difluorophenyl)methyl]pyridin-2-yl]methanol]
121 to 123 °C	COC(=O)CCc1ccc(C(c2cc(F)ccc2F)S(=O)(=O)c2ccc(Cl)cc2)nc1 (centres unmarked) [Example 45, Methyl 3-[6-[(4-chlorophenylsulfonyl)-(2,5-difluorophenyl)methyl]pyridin-3-yl]propionate]
